# Measurements reported in patent US20240325321A1, “COMPOSITIONS AND METHODS FOR INHIBITING PLpro PROTEASE ACTIVITY AND FOR PREVENTING AND TREATING SARS-CoV-2 INFECTION” (Arizona Board of Regents on Behalf of the University of …, priority 2022, published 2024).
# Like-named read-outs stand apart in the source and are kept apart here.
# What was measured:
# SARS-CoV-2 PL^pro = SARS-CoV-2 PL^pro (Severe acute respiratory syndrome coronavirus 2, UniProt P0DTD1); assay: biochemical; assay type: biochemical
# in vitro = settings: African green monkey
# SARS-CoV-2 [1] = assay: SARS-CoV-2 antiviral assay in Huh7-ACE2 cells; assay type: cell-based; settings: Severe acute respiratory syndrome coronavirus 2
# SARS-CoV-2 [2] = assay: SARS-CoV-2 antiviral assay in Vero E6 cells; assay type: cell-based; settings: Severe acute respiratory syndrome coronavirus 2, Vero C1008
# SARS-CoV-2 [3] = assay: SARS-CoV-2 antiviral assay in Caco2-hACE2 cells; assay type: cell-based; settings: Severe acute respiratory syndrome coronavirus 2
# M^pro = molecular target: T1, M^pro (Severe acute respiratory syndrome coronavirus 2, UniProt P0DTD1); assay: biochemical
# T1 construct: the main protease (M^pro)
# [4] = Cytotoxicity in Vero E6 cells; settings: African green monkey
# [5] = Cytotoxicity in Calu-3 cells; settings: human
# [6] = FRET assay, read-out: SARS-CoV-2 PL^pro IC50
smiles,measurement,setting,value
C[C@H](c1cccc2ccccc12)N(C)Cc1cccnc1 [ZX-136-2],IC50,SARS-CoV-2 PL^pro; [6],9.29 µM
Cc1cc(O)ccc1CN(C)[C@H](C)c1cccc2ccccc12 [Jun9-87-2],CC50,in vitro,61 µM
same,"SARS-CoV-2 PL^pro inhibition, in words",SARS-CoV-2 PL^pro,highly potent
CC(c1cccc(O)c1)N(C)Cc1cc(O)ccc1Cl (stereo not shown) [Jun9-29-6],IC50,SARS-CoV-2 PL^pro; [6],26.9 µM
CC(C)c1ccccc1N(C)Cc1cc(O)ccc1Cl [Jun9-29-3],IC50,SARS-CoV-2 PL^pro,> 20 µM
"Cc1ccc(N)cc1C(=O)N[C@H](C)c1cccc2ccccc12 [GRL0617, reference compound]",EC50,SARS-CoV-2 [1],20.2 µM
same,EC50,SARS-CoV-2 [2],74.4 µM
same,EC50,SARS-CoV-2 [3],25.1 µM
Cc1ccc(O)cc1C(=O)N[C@H](C)c1cccc2ccccc12 [Jun9-47-3],IC50,M^pro,> 20 µM
same,IC50,SARS-CoV-2 PL^pro; [6],2.44 µM
C[C@H](c1cccc2ccccc12)N(C)Cc1cnccn1 [ZX-136-9],IC50,SARS-CoV-2 PL^pro,> 20 µM
C[C@H](c1cccc2ccccc12)N(C)Cc1cc(N)ccc1Cl [Jun9-53-1],IC50,M^pro,> 20 µM
same,IC50,SARS-CoV-2 PL^pro; [6],2.71 µM
CC(c1ccccc1F)N(C)Cc1cc(O)ccc1Cl (stereo not shown) [Jun9-29-7],IC50,SARS-CoV-2 PL^pro; [6],42.9 µM
C[C@H](c1cccc2ccccc12)N(C)Cc1cncn1C [ZX-136-5],IC50,SARS-CoV-2 PL^pro; [6],8.32 µM
C[C@@H](NC(=O)c1cc(O)ccc1Cl)c1cccc2ccccc12 [Jun9-47-2],IC50,M^pro,> 20 µM
same,IC50,SARS-CoV-2 PL^pro; [6],6.72 µM
C[C@H](c1cccc2ccccc12)N(C)Cc1ccc(OCC(N)=O)nc1 [Jun9-85-4],IC50,SARS-CoV-2 PL^pro; [6],2.84 µM
Cc1ccc(C(C)N(C)Cc2cc(O)ccc2Cl)cc1 (stereo not shown) [Jun9-13-8],IC50,SARS-CoV-2 PL^pro; [6],71.8 µM
CC(C1CC(F)CCC1F)N(C)Cc1cc(O)ccc1Cl (stereo not shown) [Jun9-29-5],IC50,SARS-CoV-2 PL^pro; [6],> 20 µM
C[C@H](c1cccc2ccccc12)N(C)Cc1ccnc(O)c1 [Jun9-84-6],IC50,SARS-CoV-2 PL^pro,> 20 µM
C[C@H](c1cccc2ccccc12)N(C)Cc1ccc(O)cc1Cl [Jun9-87-3],CC50,in vitro,26 µM
same,"SARS-CoV-2 PL^pro inhibition, in words",SARS-CoV-2 PL^pro,highly potent
C[C@H](c1cccc2ccccc12)N(C)C(=O)c1nccnc1N [ZX-129],IC50,M^pro,> 20 µM
same,IC50,SARS-CoV-2 PL^pro; [6],> 20 µM
CC1CCCCC1N(C)Cc1cc(O)ccc1Cl (stereo not shown) [Jun9-29-1],IC50,SARS-CoV-2 PL^pro,> 20 µM
C[C@H](c1cccc2ccccc12)N(C)Cc1ccc2c(c1)COC2=O [Jun9-85-7],IC50,SARS-CoV-2 PL^pro; [6],6.41 µM
CCN(Cc1cc(O)ccc1Cl)c1cccc(C)c1C [Jun9-13-5],IC50,SARS-CoV-2 PL^pro,> 20 µM
C[C@H](c1cccc2ccccc12)N(C)Cc1cnc2c(O)cccn12 [ZX-136-10],IC50,SARS-CoV-2 PL^pro; [6],14.3 µM
Cc1ccccc1[C@@H](C)N(C)Cc1cc(O)ccc1Cl [Jun9-25-5],EC50,SARS-CoV-2 [1],3.1 µM
same,CC50,[4],38.8 µM
COc1ccc(Cl)c(CN(C)[C@H](C)c2ccccc2C)c1 [Jun9-25-4],IC50,SARS-CoV-2 PL^pro; [6],49.3 µM
C[C@H](c1cccc2ccccc12)N(C)Cc1cc(O)ccc1Cl [Jun9-28-6],IC50,M^pro,> 20 µM
same,EC50,SARS-CoV-2 [1],5.17 µM
same,IC50,SARS-CoV-2 PL^pro; [6],2.66 µM
C[C@H](c1cccc2ccccc12)N(C)Cc1ccc2c(c1)NC(=O)CO2 [Jun9-86-3],IC50,SARS-CoV-2 PL^pro; [6],7.01 µM
Cc1cc(O)cc(C)c1CN(C)[C@H](C)c1cccc2ccccc12 [Jun9-86-6],IC50,SARS-CoV-2 PL^pro; [6],0.37 µM
C[C@H](c1ccc(Cl)cc1)N(C)Cc1cc(O)ccc1Cl [Jun9-13-4],IC50,SARS-CoV-2 PL^pro,> 20 µM
CN(Cc1cc(O)ccc1Cl)Cc1c(Cl)cccc1Cl [Jun9-29-4],IC50,SARS-CoV-2 PL^pro,> 20 µM
C[C@H](c1cccc2ccccc12)N(C)Cc1cnc(N)cc1N [Jun9-84-7],IC50,SARS-CoV-2 PL^pro; [6],5.62 µM
CC(C1CCCCC1)N(C)Cc1cc(O)ccc1Cl (stereo not shown) [Jun9-13-6],IC50,SARS-CoV-2 PL^pro,> 20 µM
Cc1ccc(N)cc1CN(C)[C@H](C)c1cccc2ccccc12 [Jun9-53-2],IC50,M^pro,> 20 µM
same,EC50,SARS-CoV-2 [2],25.2 µM
same,EC50,SARS-CoV-2 [3],8.89 µM
same,CC50,[4],25.7 µM
same,"SARS-CoV-2 PL^pro inhibition, in words",SARS-CoV-2 PL^pro,highly potent
C[C@H](c1cccc2ccccc12)N(C)Cc1ccc2cccc(O)c2c1 [Jun9-85-8],IC50,SARS-CoV-2 PL^pro; [6],> 20 µM
C[C@H](c1cccc2ccccc12)N(C)Cc1cnn(C)c1 [ZX-136-3],IC50,SARS-CoV-2 PL^pro; [6],10.1 µM
C[C@H](c1cccc2ccccc12)N(C)Cc1ccc(O)cc1 [Jun9-44-3],CC50,[5],27.7 µM
same,EC50,SARS-CoV-2 [2],11.2 µM
same,EC50,SARS-CoV-2 [3],8.32 µM
same,"SARS-CoV-2 PL^pro inhibition, in words",SARS-CoV-2 PL^pro,highly potent
Cc1ccc(S(N)(=O)=O)cc1C(=O)N(C)C(C)c1ccc(Cl)c2ccccc12 (stereo not shown) [Jun 10-69-2],"SARS-CoV-2 PL^pro inhibition, in words",SARS-CoV-2 PL^pro,highly potent
Cc1ccccc1CN(C)Cc1cc(O)ccc1Cl [Jun9-26-2],IC50,SARS-CoV-2 PL^pro,> 20 µM
C[C@H](c1cccc2ccccc12)N(C)Cc1ccc(-n2cccc2)cc1 [ZX-136-4],IC50,SARS-CoV-2 PL^pro,> 20 µM
COc1ccc(Cl)c(CN(C)[C@H](C)c2cccc3ccccc23)c1 [Jun9-26-5],IC50,SARS-CoV-2 PL^pro,> 20 µM
C[C@H](c1cccc2ccccc12)N(C)Cc1n[nH]c2cccc(O)c12 [Jun9-86-7],IC50,SARS-CoV-2 PL^pro,> 20 µM
Oc1ccc(Cl)c(CN2CCc3ccccc3C2)c1 [Jun9-44-5],IC50,SARS-CoV-2 PL^pro,> 20 µM
